Experimental data from patent US6998129B2, “Cosmetic or dermatological composition comprising an association between an elastase inhibitor compound of the N-acylaminoamide family and at least one anti-inflammatory compound” (L'Oreal, priority 2001, dated 2006).

What was measured:
[1] = molecular target: T1, human leukocyte elastase (ELH) (Homo sapiens, UniProt P08246); test: in vitro anti-elastasic activity on Me-OSAAPV-p-NA substrate; type: biochemical; details: even in a small amount
T1 sequence (P08246 30-267): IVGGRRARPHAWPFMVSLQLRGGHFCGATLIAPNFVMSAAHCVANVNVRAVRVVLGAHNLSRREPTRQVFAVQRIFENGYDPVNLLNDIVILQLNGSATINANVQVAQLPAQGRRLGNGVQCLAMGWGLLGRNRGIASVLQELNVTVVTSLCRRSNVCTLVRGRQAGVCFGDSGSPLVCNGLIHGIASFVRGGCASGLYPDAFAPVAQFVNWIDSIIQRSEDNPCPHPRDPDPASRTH
Protocol: The anti-elastasic activity of compounds according to the invention is determined in vitro compared to the human leukocyte elastase (ELH).
The test is performed in the following way:
A Me-OSAAPV-p-NA (methyl-O-succinate alanine alanine proline valine-p-nitroaniline) substrate, onto which ELH (40 milli-units per ml) and 0.1% of the compound to be tested are applied, is left for incubating at 37° C. for 60 minutes.
Thereafter, the % inhibition of the control elastase activity is determined by spectrophotometry.

[2] = tested on: surviving human skins treated by a human leukocyte elastase (ELH); test: ex vivo protection of elastic fibres in fresh human skin cuts treated with ELH for 2 hours (Example 4); type: cell-based; details: 20° C.
Protocol: (§1) The ex vivo activity of example 2 compound has been evaluated on surviving human skins treated by a human leukocyte elastase (ELH).
(§2) The test is performed the following way.
Fresh human skin cuts from two different donors are treated for 2 hours, at 20° C., by 20 μl of a buffer solution (pH 7.4) optionally comprising 10 μg/ml ELH and optionally 0.1% of the compound to be tested, optionally previously put in solution in ethanol.
The elastic fibres are colored in blue using catechin (+) and quantified morphometrically using a computer assisted image analysis. The average derma surface percentage occupied by elastic fibres Is evaluated this way.

[3] = tested on: surviving human skins treated by a human leukocyte elastase (ELH); test: ex vivo protection of elastic fibres in human skin fragments kept surviving 10 days with ELH (Example 5); type: cell-based; details: 0.5 μg ELH per ml; 5 μl of 0.2% solution in ethanol every two days; 10 days at 37° C.; three donors; control 7.4%, ELH alone 5.1%
Protocol: as §1, §2
Fragments of normal human skin from three different donors are deposited in inserts positioned in culture wells. Culture medium added with antibiotics is added in the bottom of the wells. A pass is performed through slow diffusion between the two compartments via a porous membrane (pore size: 12 μm).
(§3) The culture medium is renewed every three days.
On the skin fragments, optionally 0.5 μg ELH per ml culture medium are added.
5 μl of the compound to be tested are also added every two days, previously put in solution at 0.2% by weight in ethanol.
The skins are kept surviving for 10 days at 37° C.
The elastic fibres are colored in blue using catechin (+) and quantified morphometrically using a computer assisted image analysis, The average derma surface percentage occupied by elastic fibres is evaluated this way.

[4] = tested on: surviving human skins irradiated by UVA (8 J/cm^2); test: protection of elastic fibres and collagen in surviving human skins irradiated by UVA (Example 6); type: cell-based; details: UVA 8 J/cm^2 once, 5 μl of 0.2% solution every two days, 7 days at 37° C.
Protocol: The activity of the example 2 compound has been evaluated on surviving human skins irradiated by UVA (8 J/cm^2).
as §2
Fragments of normal human skin from four different donors are deposited in inserts positioned in culture wells. Culture medium added with antibiotics is added in the bottom of the wells. A pass is performed through slow diffusion between the two compartments via a porous membrane (pore size: 12 μm).
as §3
On the skin fragments, every two days, 5 μl of the compound to be tested are added, previously put in solution at 0.2% wt in ethanol.
The skins are kept surviving for 7 days at 37° C.
The skins are radiated once at 8 J/cm^2 (RMX-3W Vilbert-Lourmat lamp).
The elastic fibres are colored in blue using catechin (+) and quantified morphometrically using a computer assisted image analysis. The average derma surface percentage occupied by elastic fibres is evaluated this way.

inhibition of the elastase activity (in words) [1]: strong inhibition
Structure (SMILES): CC(=O)N(c1cccc(C(F)(F)F)c1)C(C(=O)NCC(=O)O)C(C)C (stereo not drawn) [Example 2, {2-[acetyl-(3-trifluoromethyl-phenyl)-amino]-3-méthyl-butyrylamino}acetic acid]
% Surface occupied by elastic fibres ([2]; Skin 1, 10 μg/ml ELH + 0.1% compound, control 12.7%, ELH alone 4.85%): 13.95% | % Surface occupied by elastic fibres ([2]; Skin 2, 10 μg/ml ELH + 0.1% compound, control 15.25%, ELH alone 6.85%): 11.85% | % Surface occupied by elastic fibres [3]: 7.1% | Elastic fibres morphometric analysis (superficial derma) ([4]; untreated 6.75%, UVA alone 3.9%): 6.8% | Collagen morphometric analysis (superficial derma) ([4]; untreated 87%, UVA alone 81%): 92%
